In the NIST ThermoML archive (doi:10.1016/j.jct.2011.11.023):
Numbers after ± are expanded uncertainties.

Key:
[1] = 298 K; 101.33 kPa; Crystal 2; X-ray diffraction
[2] = Solid-liquid equilibrium temperature; settings: 101.3 kPa, DSC
[3] = Molar enthalpy of transition or fusion; settings: DSC

mass density [1]: 1471 ± 2 kg/m3 | Solid-liquid equilibrium temperature ([2]; Crystal 1): 507 ± 2 K | Solid-liquid equilibrium temperature ([2]; Crystal 2): 453.6 ± 0.3 K | Molar enthalpy of transition or fusion ([3]; Crystal 1): 27.7 ± 0.8 kJ/mol | Molar enthalpy of transition or fusion ([3]; Crystal 2): 1.29 ± 0.13 kJ/mol
Structure (SMILES): O=C(O)c1cccnc1 [3-carboxylpyridine]
